Source: PMC9653409, “Generative deep learning enables the discovery of a potent and selective RIPK1 inhibitor” (Nature Communications, 2022)

Legend:
Assay in all cases: Kinase inhibitory activity profiling of RI-962@10 µM (406 kinases, Eurofins)
Type in all cases: biochemical
[1] = target: panel of human kinases (kinase named in endpoint) (Homo sapiens, UniProt O00444); settings: 10 µM; read-out: Activity (%), Plk4(h)
Method: (§1) In vitro kinase activity assays were conducted through the Kinase Profiling Services provided by Eurofins (Eurofins, France). The protocol for the RIPK1 assay is briefly described as follows (Protocols for other kinases are very similar and can be found in http://www.eurofins.com/pharmadiscovery). RIPK1 kinase was incubated with the test compound in assay buffer containing 8 mM MOPS (pH 7.0), 0.2 mM EDTA, 250 μM […], 10 mM magnesium acetate, and 10 μM [γ-33P]-ATP for 15 min at room temperature. The reaction was initiated by the addition of the Mg/ATP mixture. After incubation for 40 min at room temperature, and the reaction was stopped by the addition of 3% phosphoric acid. A 10 μL portion of the reaction mixture was then spotted onto a P30 filter mat and washed four times for 4 min in 0.425% phosphoric acid and once in methanol prior to drying and scintillation counting.

[2] = target: panel of human kinases (kinase named in endpoint) (Homo sapiens, UniProt O43781); settings: 10 µM; read-out: Activity (%), DYRK3(h)
Method: as §1

[3] = target: panel of human kinases (kinase named in endpoint) (Homo sapiens, UniProt O75676); settings: 10 µM; read-out: Activity (%), MSK2(h)
Method: as §1

[4] = target: panel of human kinases (kinase named in endpoint) (Homo sapiens, UniProt P00519, H396P); settings: 10 µM; read-out: Activity (%), Abl (H396P) (h)
Method: as §1

[5] = target: panel of human kinases (kinase named in endpoint) (Homo sapiens, UniProt P07949, V804L); settings: 10 µM; read-out: Activity (%), Ret (V804L)(h)
Method: as §1

[6] = target: panel of human kinases (kinase named in endpoint) (Homo sapiens, UniProt P08581, M1250T); settings: 10 µM; read-out: Activity (%), Met(M1268T)(h)
Method: as §1

[7] = target: panel of human kinases (kinase named in endpoint) (Homo sapiens, UniProt P10721, D816H); settings: 10 µM; read-out: Activity (%), cKit(D816H)(h)
Method: as §1

[8] = target: panel of human kinases (kinase named in endpoint) (Homo sapiens, UniProt P21802, N549H); settings: 10 µM; read-out: Activity (%), FGFR2(N549H)(h)
Method: as §1

[9] = target: panel of human kinases (kinase named in endpoint) (Homo sapiens, UniProt P35916); settings: 10 µM; read-out: Activity (%), Flt4(h)
Method: as §1

[10] = target: panel of human kinases (kinase named in endpoint) (Homo sapiens, UniProt P49674); settings: 10 µM; read-out: Activity (%), CK1ε(h)
Method: as §1

[11] = target: panel of human kinases (kinase named in endpoint) (Homo sapiens, UniProt P49760); settings: 10 µM; read-out: Activity (%), CLK2(h)
Method: as §1

[12] = target: panel of human kinases (kinase named in endpoint) (Homo sapiens, UniProt P49840); settings: 10 µM; read-out: Activity (%), GSK3α(h)
Method: as §1

[13] = target: panel of human kinases (kinase named in endpoint) (Homo sapiens, UniProt P52564); settings: 10 µM; read-out: Activity (%), MKK6(h)
Method: as §1

[14] = target: panel of human kinases (kinase named in endpoint) (Homo sapiens, UniProt P54760); settings: 10 µM; read-out: Activity (%), EphB4(h)
Method: as §1

[15] = target: panel of human kinases (kinase named in endpoint) (Homo sapiens, UniProt Q13554); settings: 10 µM; read-out: Activity (%), CaMKIIβ(h)
Method: as §1

[16] = target: panel of human kinases (kinase named in endpoint) (Homo sapiens, UniProt Q16539, T106M); settings: 10 µM; read-out: Activity (%), SAPK2a(T106M)(h)
Method: as §1

[17] = target: panel of human kinases (kinase named in endpoint) (Homo sapiens, UniProt Q16644); settings: 10 µM; read-out: Activity (%), MAPKAP-K3(h)
Method: as §1

[18] = target: panel of human kinases (kinase named in endpoint) (Homo sapiens, UniProt Q5TCY1); settings: 10 µM; read-out: Activity (%), TTBK1(h)
Method: as §1

[19] = target: panel of human kinases (kinase named in endpoint) (Homo sapiens, UniProt Q86UE8); settings: 10 µM; read-out: Activity (%), TLK2(h)
Method: as §1

[20] = target: panel of human kinases (kinase named in endpoint) (Homo sapiens, UniProt Q8TDC3); settings: 10 µM; read-out: Activity (%), BrSK1(h)
Method: as §1

[21] = target: panel of human kinases (kinase named in endpoint) (Homo sapiens, UniProt Q96PN8); settings: 10 µM; read-out: Activity (%), TSSK3(h)
Method: as §1

[22] = target: panel of human kinases (kinase named in endpoint) (Homo sapiens, UniProt Q9H4A3); settings: 10 µM; read-out: Activity (%), WNK1(h)
Method: as §1

[23] = target: panel of human kinases (kinase named in endpoint) (Homo sapiens, UniProt Q9HAZ1); settings: 10 µM; read-out: Activity (%), CLK4(h)
Method: as §1

[24] = target: panel of human kinases (kinase named in endpoint) (Homo sapiens, UniProt Q9P0L2); settings: 10 µM; read-out: Activity (%), MARK1(h)
Method: as §1

[25] = target: panel of human kinases (kinase named in endpoint) (Homo sapiens, UniProt Q9UBE8); settings: 10 µM; read-out: Activity (%), NLK(h)
Method: as §1

panel of human kinases (kinase named in endpoint) (Homo sapiens, UniProt Q96PN8), sequence (Q96PN8 whole entry): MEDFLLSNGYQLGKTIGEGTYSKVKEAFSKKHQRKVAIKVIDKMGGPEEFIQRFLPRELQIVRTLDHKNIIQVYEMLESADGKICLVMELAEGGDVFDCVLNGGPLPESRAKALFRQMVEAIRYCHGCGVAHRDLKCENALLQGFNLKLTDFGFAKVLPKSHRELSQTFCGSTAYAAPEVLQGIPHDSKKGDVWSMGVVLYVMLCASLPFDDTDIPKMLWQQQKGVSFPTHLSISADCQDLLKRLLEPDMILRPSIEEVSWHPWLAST
panel of human kinases (kinase named in endpoint) (Homo sapiens, UniProt P49840), sequence (P49840 whole entry): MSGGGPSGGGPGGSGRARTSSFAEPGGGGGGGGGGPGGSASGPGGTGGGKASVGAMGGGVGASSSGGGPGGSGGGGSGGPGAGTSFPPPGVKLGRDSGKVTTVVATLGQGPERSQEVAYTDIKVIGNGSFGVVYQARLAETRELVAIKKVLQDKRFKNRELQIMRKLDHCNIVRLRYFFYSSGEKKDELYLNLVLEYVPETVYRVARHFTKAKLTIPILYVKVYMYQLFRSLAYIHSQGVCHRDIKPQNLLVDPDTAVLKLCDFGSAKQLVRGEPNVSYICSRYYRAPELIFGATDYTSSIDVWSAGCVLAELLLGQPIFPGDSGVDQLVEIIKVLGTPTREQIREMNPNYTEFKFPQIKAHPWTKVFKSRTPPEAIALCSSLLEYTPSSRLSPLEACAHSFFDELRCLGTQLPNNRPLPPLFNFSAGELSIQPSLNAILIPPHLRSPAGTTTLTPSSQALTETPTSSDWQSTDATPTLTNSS
panel of human kinases (kinase named in endpoint) (Homo sapiens, UniProt P54760), sequence (P54760 16-987): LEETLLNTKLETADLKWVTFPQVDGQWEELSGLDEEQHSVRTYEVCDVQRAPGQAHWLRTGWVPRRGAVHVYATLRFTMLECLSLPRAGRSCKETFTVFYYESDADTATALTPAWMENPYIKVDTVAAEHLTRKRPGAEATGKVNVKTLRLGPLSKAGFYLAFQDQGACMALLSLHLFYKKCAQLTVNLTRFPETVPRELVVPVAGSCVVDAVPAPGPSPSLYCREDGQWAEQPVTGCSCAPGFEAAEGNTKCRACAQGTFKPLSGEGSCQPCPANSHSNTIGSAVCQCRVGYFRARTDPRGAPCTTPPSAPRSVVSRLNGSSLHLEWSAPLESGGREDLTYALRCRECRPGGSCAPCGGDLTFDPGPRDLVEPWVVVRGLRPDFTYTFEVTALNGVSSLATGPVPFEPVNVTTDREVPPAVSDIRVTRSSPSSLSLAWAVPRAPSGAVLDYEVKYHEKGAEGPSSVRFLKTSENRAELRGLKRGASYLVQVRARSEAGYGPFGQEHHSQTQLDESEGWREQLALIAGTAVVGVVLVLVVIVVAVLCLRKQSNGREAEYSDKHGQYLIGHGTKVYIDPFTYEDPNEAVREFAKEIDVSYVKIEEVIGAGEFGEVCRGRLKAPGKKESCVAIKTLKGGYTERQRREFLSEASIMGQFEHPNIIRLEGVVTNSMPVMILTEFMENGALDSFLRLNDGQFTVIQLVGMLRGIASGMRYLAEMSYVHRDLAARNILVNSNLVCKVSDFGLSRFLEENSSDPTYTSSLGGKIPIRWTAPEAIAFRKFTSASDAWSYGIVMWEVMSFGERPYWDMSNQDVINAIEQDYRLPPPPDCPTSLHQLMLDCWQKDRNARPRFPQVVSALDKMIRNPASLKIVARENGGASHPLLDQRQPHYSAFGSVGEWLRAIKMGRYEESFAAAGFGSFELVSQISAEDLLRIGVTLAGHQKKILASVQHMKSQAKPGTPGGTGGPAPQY
panel of human kinases (kinase named in endpoint) (Homo sapiens, UniProt Q9HAZ1), sequence (Q9HAZ1 whole entry): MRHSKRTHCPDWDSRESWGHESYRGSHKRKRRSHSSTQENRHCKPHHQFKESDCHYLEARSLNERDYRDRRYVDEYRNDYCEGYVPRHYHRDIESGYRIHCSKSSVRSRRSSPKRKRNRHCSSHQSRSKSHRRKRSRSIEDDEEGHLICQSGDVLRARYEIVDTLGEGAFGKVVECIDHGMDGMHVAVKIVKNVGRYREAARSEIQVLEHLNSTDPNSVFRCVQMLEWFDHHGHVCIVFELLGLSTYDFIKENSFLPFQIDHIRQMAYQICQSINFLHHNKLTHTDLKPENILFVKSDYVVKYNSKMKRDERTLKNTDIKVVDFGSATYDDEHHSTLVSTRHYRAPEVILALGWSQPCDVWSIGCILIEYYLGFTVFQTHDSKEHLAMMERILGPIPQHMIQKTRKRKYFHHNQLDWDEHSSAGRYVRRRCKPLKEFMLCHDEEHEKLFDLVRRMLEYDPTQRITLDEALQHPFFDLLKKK
panel of human kinases (kinase named in endpoint) (Homo sapiens, UniProt P10721, D816H), sequence (P10721 26-976 D816H): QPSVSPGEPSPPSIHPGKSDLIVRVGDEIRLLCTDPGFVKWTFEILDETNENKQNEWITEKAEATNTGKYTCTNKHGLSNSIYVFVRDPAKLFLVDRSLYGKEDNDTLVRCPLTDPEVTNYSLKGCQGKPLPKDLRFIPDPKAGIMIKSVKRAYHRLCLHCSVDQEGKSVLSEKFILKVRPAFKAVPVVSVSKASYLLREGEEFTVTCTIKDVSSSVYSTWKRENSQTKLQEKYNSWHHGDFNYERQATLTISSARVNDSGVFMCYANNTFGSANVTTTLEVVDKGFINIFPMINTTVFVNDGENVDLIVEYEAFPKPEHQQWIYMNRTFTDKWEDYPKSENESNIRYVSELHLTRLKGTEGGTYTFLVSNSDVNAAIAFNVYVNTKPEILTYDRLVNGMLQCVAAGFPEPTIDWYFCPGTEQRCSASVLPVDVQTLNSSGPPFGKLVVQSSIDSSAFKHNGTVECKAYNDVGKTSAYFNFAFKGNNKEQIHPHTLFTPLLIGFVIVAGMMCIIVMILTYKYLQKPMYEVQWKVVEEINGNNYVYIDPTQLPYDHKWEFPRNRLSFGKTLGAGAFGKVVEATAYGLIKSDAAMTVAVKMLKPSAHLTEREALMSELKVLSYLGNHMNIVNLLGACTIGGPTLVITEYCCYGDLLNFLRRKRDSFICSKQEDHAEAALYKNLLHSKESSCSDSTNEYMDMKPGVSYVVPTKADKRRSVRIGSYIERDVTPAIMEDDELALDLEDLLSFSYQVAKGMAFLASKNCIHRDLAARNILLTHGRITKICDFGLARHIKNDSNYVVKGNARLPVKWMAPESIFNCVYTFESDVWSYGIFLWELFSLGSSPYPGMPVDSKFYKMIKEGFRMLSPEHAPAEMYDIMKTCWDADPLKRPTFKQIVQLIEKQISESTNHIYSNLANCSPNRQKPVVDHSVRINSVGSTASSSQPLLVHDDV
panel of human kinases (kinase named in endpoint) (Homo sapiens, UniProt O43781), sequence (O43781 whole entry): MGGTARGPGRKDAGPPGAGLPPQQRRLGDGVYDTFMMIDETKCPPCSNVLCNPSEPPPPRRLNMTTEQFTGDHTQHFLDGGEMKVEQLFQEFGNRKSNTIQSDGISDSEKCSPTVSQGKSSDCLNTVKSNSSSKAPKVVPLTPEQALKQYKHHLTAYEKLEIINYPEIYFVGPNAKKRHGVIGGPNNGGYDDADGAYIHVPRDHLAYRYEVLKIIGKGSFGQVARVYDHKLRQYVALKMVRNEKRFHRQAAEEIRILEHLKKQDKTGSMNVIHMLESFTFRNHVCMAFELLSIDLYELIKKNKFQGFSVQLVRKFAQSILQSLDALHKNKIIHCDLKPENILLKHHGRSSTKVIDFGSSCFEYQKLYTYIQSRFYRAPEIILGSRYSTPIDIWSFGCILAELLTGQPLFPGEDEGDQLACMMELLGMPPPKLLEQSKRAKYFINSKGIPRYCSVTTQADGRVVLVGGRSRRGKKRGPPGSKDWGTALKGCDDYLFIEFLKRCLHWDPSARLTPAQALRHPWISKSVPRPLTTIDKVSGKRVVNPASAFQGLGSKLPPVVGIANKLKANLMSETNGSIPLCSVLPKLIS
panel of human kinases (kinase named in endpoint) (Homo sapiens, UniProt P21802, N549H), sequence (P21802 22-821 N549H): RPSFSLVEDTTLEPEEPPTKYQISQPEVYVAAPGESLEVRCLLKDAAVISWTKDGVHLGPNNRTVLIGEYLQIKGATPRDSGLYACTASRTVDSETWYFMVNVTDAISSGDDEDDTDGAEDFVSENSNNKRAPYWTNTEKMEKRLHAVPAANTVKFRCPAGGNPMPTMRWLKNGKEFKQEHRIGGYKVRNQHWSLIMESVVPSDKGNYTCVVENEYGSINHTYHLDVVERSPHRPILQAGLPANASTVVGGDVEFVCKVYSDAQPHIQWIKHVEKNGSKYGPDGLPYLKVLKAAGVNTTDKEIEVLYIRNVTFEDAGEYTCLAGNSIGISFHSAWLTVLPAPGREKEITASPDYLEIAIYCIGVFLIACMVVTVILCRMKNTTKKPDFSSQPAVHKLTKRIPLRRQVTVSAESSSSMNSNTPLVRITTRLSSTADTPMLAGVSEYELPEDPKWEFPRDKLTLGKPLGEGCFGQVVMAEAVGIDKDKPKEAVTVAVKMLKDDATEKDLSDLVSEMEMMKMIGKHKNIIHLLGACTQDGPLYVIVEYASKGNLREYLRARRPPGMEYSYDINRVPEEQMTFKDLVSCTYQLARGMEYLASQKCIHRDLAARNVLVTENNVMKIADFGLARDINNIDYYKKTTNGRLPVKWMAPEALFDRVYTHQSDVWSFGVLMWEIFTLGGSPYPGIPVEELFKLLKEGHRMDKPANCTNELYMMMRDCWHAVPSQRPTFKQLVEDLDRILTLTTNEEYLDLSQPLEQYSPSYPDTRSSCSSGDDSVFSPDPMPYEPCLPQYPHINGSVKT
panel of human kinases (kinase named in endpoint) (Homo sapiens, UniProt Q16539, T106M), sequence (Q16539 whole entry T106M): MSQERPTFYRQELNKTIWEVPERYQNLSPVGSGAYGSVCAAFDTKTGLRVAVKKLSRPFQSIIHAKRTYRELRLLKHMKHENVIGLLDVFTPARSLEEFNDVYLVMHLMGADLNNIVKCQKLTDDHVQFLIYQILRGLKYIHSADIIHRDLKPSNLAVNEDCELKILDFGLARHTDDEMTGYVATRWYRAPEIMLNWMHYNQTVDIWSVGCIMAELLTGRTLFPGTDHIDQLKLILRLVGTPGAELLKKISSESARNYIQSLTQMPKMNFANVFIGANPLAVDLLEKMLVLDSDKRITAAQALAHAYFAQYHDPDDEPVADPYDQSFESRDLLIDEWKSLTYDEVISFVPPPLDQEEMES

Which activity at 10 µM [1] does the source give for `CC(C)C(=O)Nc1nc2cc(-c3ccc4c(c3)c(C(=O)NC(C)c3ccccc3)cn4C)ccn2n1` (stereo not shown) [RI-962] here?
Its activity at 10 µM is 88%.

And the activity at 10 µM [2]?
Its activity at 10 µM is 83%.

And the activity at 10 µM [3]?
The activity at 10 µM was 94%.

What about the activity at 10 µM [4] of the same molecule?
Its activity at 10 µM is 110%.

And the activity at 10 µM [5]?
The activity at 10 µM was 103%.

And the activity at 10 µM [6]?
The activity at 10 µM was 115%.

What about the activity at 10 µM [7] of the same molecule?
Its activity at 10 µM is 142%.

And the activity at 10 µM [8]?
The activity at 10 µM was 100%.

And the activity at 10 µM [9]?
The activity at 10 µM was 86%.

And the activity at 10 µM [10]?
The activity at 10 µM was 83%.

And the activity at 10 µM [11]?
Its activity at 10 µM is 94%.

What about the activity at 10 µM [12] of the same molecule?
Its activity at 10 µM is 112%.

And the activity at 10 µM [13]?
The activity at 10 µM was 97%.

What about the activity at 10 µM [14] of the same molecule?
Its activity at 10 µM is 90%.

What about the activity at 10 µM [15] of the same molecule?
The activity at 10 µM was 109%.

And the activity at 10 µM [16]?
The activity at 10 µM was 86%.

And the activity at 10 µM [17]?
The activity at 10 µM was 98%.

What about the activity at 10 µM [18] of the same molecule?
Its activity at 10 µM is 92%.

What about the activity at 10 µM [19] of the same molecule?
Its activity at 10 µM is 78%.

What about the activity at 10 µM [20] of the same molecule?
The activity at 10 µM was 100%.

And the activity at 10 µM [21]?
The activity at 10 µM was 94%.

And the activity at 10 µM [22]?
Its activity at 10 µM is 75%.

And the activity at 10 µM [23]?
Its activity at 10 µM is 103%.

And the activity at 10 µM [24]?
The activity at 10 µM was 99%.

What about the activity at 10 µM [25] of the same molecule?
Its activity at 10 µM is 93%.
